Assays:
[1] = biological target: 11-beta-hydroxysteroid dehydrogenase 1 (Mus musculus, UniProt P50172); test: Inhibition of recombinant mouse 11beta-HSD1 expressed in HEK293 cell microsomes using [3H]cortisone as substrate after 4 hrs by homogeneous immuno-radiometric scintillation proximity assay
[2] = biological target: T1, Nuclear receptor subfamily 1 group I member 2 (Homo sapiens, UniProt O75469); test: Activation of PXR (unknown origin); assay type: ADME
T1 sequence (O75469 whole entry): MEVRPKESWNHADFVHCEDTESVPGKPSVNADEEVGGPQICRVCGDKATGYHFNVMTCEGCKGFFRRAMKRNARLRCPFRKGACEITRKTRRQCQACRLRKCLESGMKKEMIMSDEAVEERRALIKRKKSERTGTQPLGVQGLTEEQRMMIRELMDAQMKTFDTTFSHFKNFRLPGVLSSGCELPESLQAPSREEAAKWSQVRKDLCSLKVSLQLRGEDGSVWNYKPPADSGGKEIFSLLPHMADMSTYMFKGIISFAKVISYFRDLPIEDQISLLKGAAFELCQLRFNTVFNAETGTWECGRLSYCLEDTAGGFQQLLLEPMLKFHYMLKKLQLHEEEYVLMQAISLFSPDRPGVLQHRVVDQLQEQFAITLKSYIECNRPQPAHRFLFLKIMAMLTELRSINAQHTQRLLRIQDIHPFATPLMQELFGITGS

Sequence of 11-beta-hydroxysteroid dehydrogenase 1 (P50172 whole entry): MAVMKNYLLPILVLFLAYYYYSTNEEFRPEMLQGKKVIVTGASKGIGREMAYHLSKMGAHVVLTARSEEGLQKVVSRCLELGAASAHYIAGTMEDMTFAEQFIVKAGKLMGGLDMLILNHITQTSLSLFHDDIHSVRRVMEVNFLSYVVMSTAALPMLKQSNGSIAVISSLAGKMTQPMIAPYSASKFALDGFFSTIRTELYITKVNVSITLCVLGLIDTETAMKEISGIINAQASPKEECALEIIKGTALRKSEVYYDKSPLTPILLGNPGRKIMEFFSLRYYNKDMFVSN

IC50 [1] [µM]	EC50 [2] [µM]	Compound
8.06	48	OC(c1cccn2c(C3(c4ccc(Cl)cc4)CC3)nnc12)C1CC1 (stereo not given)
5.7	25	OCCCc1cccn2c(C3(c4ccc(Cl)cc4)CC3)nnc12
> 10	> 50	OCC(O)c1cccn2c(C3(c4ccc(Cl)cc4)CC3)nnc12 (stereo not given)

Further lines, the molecule ahead of its results:

Compound	IC50 [1] [µM]	EC50 [2] [µM]
CC(C)(CCO)c1cccn2c(C3(c4ccc(Cl)cc4)CC3)nnc12	1.15	1.3
CC(C)(C(=O)O)c1cccn2c(C3(c4ccc(Cl)cc4)CC3)nnc12	> 10	> 50

— ChEMBL document CHEMBL4325920, “Discovery of Clinical Candidate BMS-823778 as an Inhibitor of Human 11β-Hydroxysteroid Dehydrogenase Type 1 (11β-HSD-1)” (ACS Med Chem Lett, 2018)
